pIC50: −log10 of the molar value.

One assay concerns the target EED (1-441)-His protein (Homo sapiens (Human), UniProt O75530). Briefly: EED-H3K27Me3 peptide competition binding assay by AlphaScreen. The note with it: read-out: (a) IC50 EED Alphascreen binding Qualified. An excerpt: EED-H3K27Me3 peptide competition binding assay by AlphaScreen (α-screen)
On the technique in general: In Alpha technology, singlet oxygen from a donor bead excites a nearby acceptor bead.

Assay [1] deals with wild type PRC2 (wtPRC2) complex (Homo sapiens (Human), UniProt O75530). Kind of assay: EED LC-MS assay. The assay is classed as biochemical. The note with it: read-out: (b) IC50 EED LC-MS Qualified. The method, then:
A 6 μL solution of 3 μM of the peptide substrate H3K27Me0 (histone H3[21-44]-biotin) in reaction buffer was added to initiate each reaction. […] ELISA (H3K27 Methylation) Assay

EED (1-441)-His protein, sequence (O75530 whole entry): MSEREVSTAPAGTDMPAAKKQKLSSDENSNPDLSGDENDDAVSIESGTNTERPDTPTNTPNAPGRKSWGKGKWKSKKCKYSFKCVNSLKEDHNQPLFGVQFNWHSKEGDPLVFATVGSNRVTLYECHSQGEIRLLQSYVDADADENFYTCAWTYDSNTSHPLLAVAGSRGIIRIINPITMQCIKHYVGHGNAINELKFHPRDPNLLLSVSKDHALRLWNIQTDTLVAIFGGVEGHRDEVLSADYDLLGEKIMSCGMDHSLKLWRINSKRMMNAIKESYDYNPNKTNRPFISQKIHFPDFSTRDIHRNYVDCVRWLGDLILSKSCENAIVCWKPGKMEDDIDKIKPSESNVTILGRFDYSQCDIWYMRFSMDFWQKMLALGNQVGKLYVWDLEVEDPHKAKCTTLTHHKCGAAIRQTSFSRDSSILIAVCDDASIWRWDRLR
wild type PRC2 (wtPRC2) complex, sequence (O75530 whole entry): as above
wild type PRC2 (wtPRC2) complex, sequence (Q15910 whole entry partner): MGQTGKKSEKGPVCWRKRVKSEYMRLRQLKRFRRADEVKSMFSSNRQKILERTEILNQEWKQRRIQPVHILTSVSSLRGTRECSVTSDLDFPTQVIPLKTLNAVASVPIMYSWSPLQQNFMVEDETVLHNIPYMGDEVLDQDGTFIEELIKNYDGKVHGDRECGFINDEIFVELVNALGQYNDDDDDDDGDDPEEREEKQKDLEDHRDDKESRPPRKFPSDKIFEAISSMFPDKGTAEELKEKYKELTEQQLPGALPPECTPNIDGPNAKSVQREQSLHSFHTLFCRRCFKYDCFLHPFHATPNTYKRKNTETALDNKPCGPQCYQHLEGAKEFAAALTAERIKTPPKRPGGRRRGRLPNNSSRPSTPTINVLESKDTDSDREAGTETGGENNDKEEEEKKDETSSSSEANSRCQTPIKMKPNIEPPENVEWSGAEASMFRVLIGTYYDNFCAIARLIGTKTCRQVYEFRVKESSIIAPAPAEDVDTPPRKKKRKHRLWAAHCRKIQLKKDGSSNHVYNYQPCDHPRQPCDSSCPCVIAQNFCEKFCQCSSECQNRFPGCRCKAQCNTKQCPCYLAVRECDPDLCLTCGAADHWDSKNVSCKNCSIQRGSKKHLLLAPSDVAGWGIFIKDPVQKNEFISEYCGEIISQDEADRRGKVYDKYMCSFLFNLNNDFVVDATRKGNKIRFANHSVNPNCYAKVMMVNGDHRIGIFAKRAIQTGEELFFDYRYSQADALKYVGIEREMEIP
wild type PRC2 (wtPRC2) complex, sequence (Q15022 whole entry partner): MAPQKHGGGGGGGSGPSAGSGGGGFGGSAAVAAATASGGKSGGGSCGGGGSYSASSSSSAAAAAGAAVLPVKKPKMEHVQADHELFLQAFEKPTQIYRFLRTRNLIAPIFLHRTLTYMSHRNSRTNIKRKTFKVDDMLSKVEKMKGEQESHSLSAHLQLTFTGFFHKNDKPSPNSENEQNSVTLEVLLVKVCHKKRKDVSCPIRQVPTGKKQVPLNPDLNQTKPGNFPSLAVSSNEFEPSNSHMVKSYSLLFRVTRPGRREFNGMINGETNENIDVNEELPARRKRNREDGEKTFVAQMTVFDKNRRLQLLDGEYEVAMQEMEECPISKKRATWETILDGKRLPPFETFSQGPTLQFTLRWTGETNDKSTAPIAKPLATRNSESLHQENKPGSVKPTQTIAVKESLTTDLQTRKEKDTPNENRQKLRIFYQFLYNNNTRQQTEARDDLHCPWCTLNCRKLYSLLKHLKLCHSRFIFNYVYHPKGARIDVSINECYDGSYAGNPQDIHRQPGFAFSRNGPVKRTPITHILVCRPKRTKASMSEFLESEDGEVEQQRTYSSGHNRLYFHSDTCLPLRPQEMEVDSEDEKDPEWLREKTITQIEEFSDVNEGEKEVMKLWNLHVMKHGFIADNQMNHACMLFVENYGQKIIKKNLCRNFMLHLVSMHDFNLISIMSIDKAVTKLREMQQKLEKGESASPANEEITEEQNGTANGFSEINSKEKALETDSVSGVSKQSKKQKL

Regarding `Cc1cc(-c2cnc(NCc3c(F)ccc4c3CCO4)n3cnnc23)ccn1` [Example 116, N-((5-fluoro-2,3-dihydrobenzofuran-4-yl)methyl)-8-(2-methylpyridin-4-yl)-[1,2,4]triazolo[4,3-c]pyrimidin-5-amine], the pIC50 (in general, the negative decadic logarithm of the IC50, by convention in mol/L) on EED (1-441)-His protein is 8.33; in assay [1] it was 8.12.

Take `O=C1OCCN1c1ccc(-c2cnc(NCc3cccc4c3CCO4)n3cnnc23)cn1` [Example 117, 3-(5-(5-(((2,3-dihydrobenzofuran-4-yl)methyl)amino)-[1,2,4]triazolo[4,3-c]pyrimidin-8-yl)pyridin-2-yl)oxazolidin-2-one]: the pIC50 at EED (1-441)-His protein is 7.63; in assay [1], 7.53.

For the molecule `Cc1ccncc1-c1cnc(NCc2c(F)ccc3c2CCO3)n2cnnc12` [Example 118, N-((5-fluoro-2,3-dihydrobenzofuran-4-yl)methyl)-8-(4-methylpyridin-3-yl)-[1,2,4]triazolo[4,3-c]pyrimidin-5-amine], the figures for the pIC50 (at EED (1-441)-His protein; in assay [1]) were 8.00 and 7.74, respectively.

With `Fc1ccc2c(c1CNc1ncc(-c3ccc(C4CC4)nc3)c3nncn13)CCO2` [Example 119, 8-(6-cyclopropylpyridin-3-yl)-N-((5-fluoro-2,3-dihydrobenzofuran-4-yl)methyl)-[1,2,4]triazolo[4,3-c]pyrimidin-5-amine], the negative logarithm of the IC50 (pIC50) at EED (1-441)-His protein was 8.40; in assay [1], 8.18.

Turning to `Fc1ccc2c(c1CNc1ncc(-c3ccnc(N4CCOCC4)c3)c3nncn13)CCO2` [Example 120, N-((5-fluoro-2,3-dihydrobenzofuran-4-yl)methyl)-8-(2-morpholinopyridin-4-yl)-[1,2,4]triazolo[4,3-c]pyrimidin-5-amine], the pIC50 at EED (1-441)-His protein was 7.81; in assay [1], 7.59.

As to `N#Cc1ccccc1-c1cnc(NCc2c(F)ccc3c2CCO3)n2cnnc12` [Example 121, 2-(5-(((5-fluoro-2,3-dihydrobenzofuran-4-yl)methyl)amino)-[1,2,4]triazolo[4,3-c]pyrimidin-8-yl)benzonitrile], the values for the pIC50 (at EED (1-441)-His protein; in assay [1]) were 7.87 and 7.66, respectively.

For the molecule `NC(=O)c1ccccc1-c1cnc(NCc2c(F)ccc3c2CCO3)n2cnnc12` [Example 122, 2-(5-(((5-fluoro-2,3-dihydrobenzofuran-4-yl)methyl)amino)-[1,2,4]triazolo[4,3-c]pyrimidin-8-yl)benzamide], the pIC50 was 7.72 on EED (1-441)-His protein and 7.36 in assay [1].

For `Cc1ncccc1-c1cnc(NCc2cccc3c2CCO3)n2cnnc12` [Example 123, N-((2,3-dihydrobenzofuran-4-yl)methyl)-8-(2-methylpyridin-3-yl)-[1,2,4]triazolo[4,3-c]pyrimidin-5-amine], the pIC50 is 7.91 on EED (1-441)-His protein and 7.63 in assay [1].

`Fc1ccc2c(c1CNc1ncc(-c3cnccc3Cl)c3nncn13)CCO2` [Example 124, 8-(4-chloropyridin-3-yl)-N-((5-fluoro-2,3-dihydrobenzofuran-4-yl)methyl)-[1,2,4]triazolo[4,3-c]pyrimidin-5-amine]: the figures for the pIC50 (on EED (1-441)-His protein; in assay [1]) were 8.00 and 7.81, respectively.

With `O=C1CNCCN1c1ccc(-c2cnc(NCc3cccc4c3CCO4)n3cnnc23)cn1` [Example 125, 1-(5-(5-(((2,3-dihydrobenzofuran-4-yl)methyl)amino)-[1,2,4]triazolo[4,3-c]pyrimidin-8-yl)pyridin-2-yl)piperazin-2-one], the pIC50 was 8.07 at EED (1-441)-His protein and 7.63 in assay [1].

Regarding `OC1CN(c2ccc(-c3cnc(NCc4cccc5c4CCO5)n4cnnc34)cn2)C1` [Example 126, 1-(5-(5-(((2,3-dihydrobenzofuran-4-yl)methyl)amino)-[1,2,4]triazolo[4,3-c]pyrimidin-8-yl)pyridin-2-yl)azetidin-3-ol], the pIC50 on EED (1-441)-His protein is 7.89; in assay [1], 7.76.

`Cc1cc(S(C)(=O)=O)ncc1-c1cnc(NCc2c(F)ccc3c2CCO3)n2cnnc12` [Example 127, N-((5-fluoro-2,3-dihydrobenzofuran-4-yl)methyl)-8-(4-methyl-6-(methylsulfonyl)pyridin-3-yl)-[1,2,4]triazolo[4,3-c]pyrimidin-5-amine]: the negative-log IC50 (pIC50) at EED (1-441)-His protein was 8.59; in assay [1], 8.06.

For the molecule `Cc1cc(S(C)(=O)=O)ccc1-c1cnc(NCc2c(F)ccc3c2CCO3)n2cnnc12` [Example 128, N-((5-fluoro-2,3-dihydrobenzofuran-4-yl)methyl)-8-(2-methyl-4-(methylsulfonyl)phenyl)-[1,2,4]triazolo[4,3-c]pyrimidin-5-amine], the pIC50 at EED (1-441)-His protein is 8.07; in assay [1], 7.78.

Consider `O=C(c1ccc(-c2cnc(NCc3c(F)ccc4c3CCO4)n3cnnc23)cn1)N1CCCC1` [Example 129, (5-(5-(((5-fluoro-2,3-dihydrobenzofuran-4-yl)methyl)amino)-[1,2,4]triazolo[4,3-c]pyrimidin-8-yl)pyridin-2-yl)(pyrrolidin-1-yl)methanone], for which the pIC50 at EED (1-441)-His protein is 8.41; in assay [1] it was 8.08.

For `Cc1cc(C(=O)N2CCCC2)ncc1-c1cnc(NCc2c(F)ccc3c2CCO3)n2cnnc12` [Example 130, (5-(5-(((5-fluoro-2,3-dihydrobenzofuran-4-yl)methyl)amino)-[1,2,4]triazolo[4,3-c]pyrimidin-8-yl)-4-methylpyridin-2-yl)(pyrrolidin-1-yl)methanone], the pIC50 was 8.30 on EED (1-441)-His protein and 7.86 in assay [1].

As for `Cc1cc(C(=O)N(C)C)ncc1-c1cnc(NCc2c(F)ccc3c2CCO3)n2cnnc12` [Example 131, 5-(5-(((5-fluoro-2,3-dihydrobenzofuran-4-yl)methyl)amino)-[1,2,4]triazolo[4,3-c]pyrimidin-8-yl)-N,N,4-trimethylpicolinamide], the negative-log IC50 (pIC50) on EED (1-441)-His protein was 8.40; in assay [1] it was 7.97.

With `Cc1nn(C)c(C)c1-c1cnc(NCc2c(F)ccc3c2CCO3)n2cnnc12` [Example 132, N-((5-fluoro-2,3-dihydrobenzofuran-4-yl)methyl)-8-(1,3,5-trimethyl-1H-pyrazol-4-yl)-[1,2,4]triazolo[4,3-c]pyrimidin-5-amine], the pIC50 was 8.21 at EED (1-441)-His protein and 7.99 in assay [1].

Consider `O=C1CN(Cc2ccc(-c3cnc(NCc4cccc5c4CCO5)n4cnnc34)cn2)CCN1` [Example 133, 4-((5-(5-(((2,3-dihydrobenzofuran-4-yl)methyl)amino)-[1,2,4]triazolo[4,3-c]pyrimidin-8-yl)pyridin-2-yl)methyl)piperazin-2-one], for which the pIC50 on EED (1-441)-His protein was 8.06; in assay [1], 7.65.

In the case of `O=CN1CCN(c2ccc(-c3cnc(NCc4cccc5c4CCO5)n4cnnc34)cn2)CC1` [Example 134, 4-(5-(5-(((2,3-dihydrobenzofuran-4-yl)methyl)amino)-[1,2,4]triazolo[4,3-c]pyrimidin-8-yl)pyridin-2-yl)piperazine-1-carbaldehyde], the pIC50 at EED (1-441)-His protein was 7.76; in assay [1], 7.52.

Consider `CN(C)C(=O)CCc1ccc(-c2cnc(NCc3cccc4c3CCO4)n3cnnc23)cn1` [Example 135, 3-(5-(5-(((2,3-dihydrobenzofuran-4-yl)methyl)amino)-[1,2,4]triazolo[4,3-c]pyrimidin-8-yl)pyridin-2-yl)-N,N-dimethylpropanamide], for which the pIC50 on EED (1-441)-His protein was 8.24; in assay [1] it was 7.95.

Values taken from patent US9580437B2, “Triazolopyrimidine compounds and uses thereof” (Novartis AG, priority 2014, dated 2017).
